In patent US6290974A, “Protein ingredient for carrying lipophilic nutrients” (priority 1998, dated 2001):
Where a name gives a salt, the structure may show the parent alone. Read-outs that look alike come from different tables or passages of the source.

Columns and labels:
[1] = molecular target: T1, β-lactoglobulin (β-Lg) (Bos taurus, UniProt P02754); test: Fluorescence titration of β-Lg with ligands (Equation [1]; Kd and n); type: binding
T1 construct: Isolation of β-Lg from Whey; from tissue; host or cells: whey (milk), purified by bioselective adsorption on N-retinyl-Celite
T1 sequence (P02754 17-178): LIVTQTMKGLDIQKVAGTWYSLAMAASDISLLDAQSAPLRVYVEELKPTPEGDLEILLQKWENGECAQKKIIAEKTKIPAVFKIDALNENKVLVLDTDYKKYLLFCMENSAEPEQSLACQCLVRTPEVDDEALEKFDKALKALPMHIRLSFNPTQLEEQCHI
Method: (§1) Fluorescence spectra were recorded at 23 ° C. with a System 3 Scanning Spectrofluorometer (Optical Technology Devices, Inc., Elmsford, N.Y.) using the ratio mode. Excitation and emission spectra were obtained with 1 μM solutions of β-Lg in 50 mM sodium phosphate, pH 7.0, both in the presence and absence of 2 μM concentrations of the various ligands. Titration of β-Lg with the various ligands was quantified by measuring the fluorescence quenching of the protein tryptophanyl residues (excitation at 287 nm, emission measured at 332 nm). The spectrofluorometer cuvette contained 2.5 ml of 1 μM β-Lg in the phosphate buffer to which 2.5-μl increments of the ligand solution in ethanol or ethyl ether were added with a micropipette. Dufour et al., (1990) FEBS Lett. 277, 223. […] Cogan et al., (1976) Eur. J. Biochem. 65, 71.
(§2) The titration can also be followed by measuring the increase in vitamin D or cholesterol fluorescence that was due to energy transfer from the tryptophanyl residue. Thus, with excitation at 287 nm, emission was measured at 412 nm for vitamin D or 390 nm for cholesterol.
The titration data can be used to evaluate the equilibrium dissociation constant and the number of binding sites per monomer as has been previously described. Cogan et al., (1976) Eur. J. Biochem. 65, 71; Dufour and Haertle, (1991) Biochim. Biophys. Acta 1079, 316; Wang et al., (1997) J. Dairy Sci. 80, 1047. The linear regression equation
PT a=(1/n)[RT a/(1-a)]-Kd /n
is used to calculate n, the number of binding sites per molecule of protein and Kd, the apparent dissociation constant. In this equation, PT is total protein concentration, and RT is total ligand concentration.
Cho et al., (1994) J. Biol. Chem. 269, 11102; Dufour and Haertle, (1991) Biochim. Biophys. Acta 1079, 316; Wang et al., (1997) J. Dairy Sci. 80, 1047. […] Cho et al., (1994) J. Biol. Chem. 269, 11102; Dufour and Haertle, (1991) Biochim. Biophys. Acta 1079, 316; Wang et al., (1997) J. Dairy Sci. 80, 1047.
(§3) Possible binding of vitamin D3 to β-Lg was also investigated by recording the fluorescence emission at 412 nm as a function of the excitation wavelength for vitamin solutions with and without added β-Lg (FIG. 4). […] In a titration experiment, the protein fluorescence at 332 nm with excitation at 287 nm was determined as a function of vitamin D3 concentration (FIG. 3). […] Also, the increase of vitamin D3 fluorescence at 412 nm with excitation at 287 nm for varying vitamin concentrations can be plotted according to Equation [1] as shown in FIG. 5B.
Dufour and Haertle, (1991) Biochim. Biophys. Acta 1079, 316; Wang et al., (1997) J. Dairy Sci. 80, 1047.
The potential binding of both cholesterol and 7-dehydrocholesterol to β-Lg was examined by fluorescence spectroscopy, essentially as described above for vitamin D (Example 3).
The titration data were used to calculate the equilibrium dissociation constant (Kd) and the number of binding sites per β-Lg monomer (n), as described in Example 3.

[2] = molecular target: T1, β-lactoglobulin (β-Lg); test: Fluorescence emission/excitation spectra of β-Lg with and without ligand; type: binding; conditions: for energy transfer between protein tryptophanyl residues and ligand: emission 390 nm
Method: as §1, §2
Binding of hydrophobic ligands in proximity to Trp19 results in energy transfer between this protein residue and the ligand, and thus changes in the fluorescence emission spectra can be used to follow complex formation. Fluorescence emission spectra of β-Lg with and without bound vitamin D2 that result from excitation of tryptophanyl residues at 287 nm are shown in FIG. 1.
as §3
The potential binding of both cholesterol and 7-dehydrocholesterol to β-Lg was examined by fluorescence spectroscopy, essentially as described above for vitamin D (Example 3). […] A plot of the data that were obtained with varying cholesterol concentrations according to Equation [1] from Example 3 was similar to that for vitamin D3, shown in FIG. 5.
Studies were undertaken to evaluate whether other fat-soluble vitamins bind to β-Lg. Fluorescence emission spectra of β-Lg in the presence and absence of vitamin E, vitamin K1, or vitamin K2 were obtained essentially as described in Example 3.

[3] = Kd, Table 2, β-Lg titration as in Example 3
[4] = 1 μM β-Lg, 50 mM phosphate pH 7.0, 23 °C, triplicate titrations (vitamin D2: five; ergosterol: single)
[5] = β-Lg titration as in Example 3, read-out: Kd, Table 2

Cc1c(C)c2c(c(C)c1O)CCC(C)(CCCC(C)CCCC(C)CCCC(C)C)O2 (stereo not drawn) [Vitamin E, α-tocopherol]
n values, molecules bound per β-Lg monomer (Example 6) [1]: 1
Kd ([1]; Kd values (Example 6)): 0.091 µM
Kd [1, 3]: 0.091 µM
Kd ([1]; order of magnitude of Kd (Example 6)): ~0.001 µM
n, Table 2 ([1]; β-Lg titration as in Example 3): 1.0 mol/mol β-LG
β-Lg fluorescence, 280 to 300 nm [2]: increase
β-Lg fluorescence, 300 to 360 nm [2]: no change

CC(C)CCC[C@@H](C)[C@H]1CC[C@H]2C3=CC=C4C[C@@H](O)CC[C@]4(C)[C@H]3CC[C@]12C [7-Dehydrocholesterol, 7-dehydrocholesterol]
Kd [1]: 0.0267 µM
n (number of binding sites per molecule of protein), Table 1 [1, 4]: 1.65 mol/mol of protein
energy transfer between protein tryptophanyl residues and ligand [2]: energy was transferred

CC1=C(C/C=C(\C)CCC[C@H](C)CCC[C@H](C)CCCC(C)C)C(=O)c2ccccc2C1=O [Vitamin K1, 2-methyl-3-phytyl-1,4-napthho-quinone]
n values, molecules bound per β-Lg monomer (Example 6) [1]: 1.9
molecules bound per molecule of protein ([1]; per molecule of protein / β-Lg monomer): ~2 molecules
Kd ([1]; read-out: Kd values (Example 6)): 0.09 µM
Kd ([1]; read-out: order of magnitude of Kd (Example 6)): ~0.001 µM
n, Table 2 ([1]; β-Lg titration as in Example 3): 1.9 mol/mol β-LG
Kd [1, 5]: 0.09 µM
β-Lg fluorescence, 280 to 300 nm [2]: increase
β-Lg fluorescence, 300 to 360 nm [2]: quenched

CCCCCCCCCCCCCCCC(=O)O [Palmitic acid]
Kd [1, 3]: 0.49 µM
n, Table 2 ([1]; β-Lg titration as in Example 3): 1.2 mol/mol β-LG

CC1=C(/C=C/C(C)=C/C=C/C(C)=C/C(=O)O)C(C)(C)CCC1 [Retinoic acid, retinoic acid]
Kd [1, 3]: 0.017 µM
n, Table 2 ([1]; β-Lg titration as in Example 3): 0.9 mol/mol β-LG

CC(C)CCC[C@@H](C)[C@H]1CC[C@H]2[C@@H]3CC=C4C[C@@H](O)CC[C@]4(C)[C@H]3CC[C@]12C [Cholesterol, cholesterol]
Kd [1]: 0.0349 µM
n (number of binding sites per molecule of protein), Table 1 [1, 4]: 2.36 mol/mol of protein
Kd [1, 3]: 0.0349 µM
n, Table 2 ([1]; β-Lg titration as in Example 3): 2.4 mol/mol β-LG
energy transfer between protein tryptophanyl residues and ligand [2]: energy was transferred

C=C1CC[C@H](O)C/C1=C/C=C1\CCC[C@]2(C)[C@@H]([C@H](C)/C=C/[C@H](C)C(C)C)CC[C@@H]12 [Vitamin D2, ergocalciferol]
mol bound per mol of protein (Example 4) [1]: 2 mol~mol^-1
n (number of binding sites per molecule of protein), Table 1 [1, 4]: 2.00 mol/mol of protein
Kd ([1]; 1 μM β-Lg, 50 mM phosphate pH 7.0, 23 °C, triplicate titrations (vitamin D2: five; ergosterol: single), read-out: Kd (apparent dissociation constant), Table 1): 0.00491 µM
ligand concentration at which fluorescence quenching appeared to reach a maximum ([1]; 1 μM β-Lg, emission 332 nm): ~2 µM
binding affinity, comparative (in words) ([1]; compared with other ligands of Table 1 or the retinoids): significantly greater
affinity of β-Lg relative to that for vitamin A and other retinoids (greater by) ([1]; compared with vitamin A and other retinoids): about 10 fold
n ([1]; quenching at 332 nm, excitation 287 nm, five titrations, 1 μM β-Lg): 2.00±0.16
Kd ([1]; quenching at 332 nm, excitation 287 nm, five titrations, 1 μM β-Lg, read-out: Kd): 0.00491 ± 0.00328 µM
n, Table 2 ([1]; β-Lg titration as in Example 3): 2.0 mol/mol β-LG
Kd [1, 5]: 0.0049 µM
β-Lg fluorescence, 300 to 360 nm [2]: quenched
ligand fluorescence at 412 nm with excitation around 287 nm in presence of β-Lg ([2]; 2 μM ligand, 1 μM β-Lg, pH 7.0, 23 °C): increased

C=C1CC[C@H](OS(=O)(=O)O)C/C1=C/C=C1\CCC[C@]2(C)[C@@H]([C@H](C)CCCC(C)C)CC[C@@H]12 [Vitamin D3 sulfate, vitamin D3 sulfate]
Kd [1]: 0.0303 µM
mol bound per mol of protein (Example 4) [1]: 2 mol~mol^-1
n (number of binding sites per molecule of protein), Table 1 [1, 4]: 1.74 mol/mol of protein
